Broadly, the melting point is the temperature, or range, at which the solid turns liquid.

The results in this text go back to US8853246B2 (Dow AgroSciences LLC, priority 2009, dated 2014).

Data set [1] relates to Sweetpotato Whitefly-Crawler (Bemisia Tabaci). Kind of data set: Insecticidal test for sweetpotato whitefly-crawler in foliar spray assay (col. BEMITA). It is filed as in vivo. The settings on record: sweetpotato whitefly-crawler; for pest or weed control at 200 ppm: Bemisia tabaci, read-out: BEMITA 200 ppm (Corrected % Control, rating). Put shortly: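 Percent control, Abbott-corrected against diluent-sprayed plants, from microscope counts of live nymphs 8-9 days after treatment. Test solution at 200 ppm in 0.025% aqueous Tween 20 applied to both leaf sides of egg-infested cotton after a 5-6 day hatch period (82° F, 50% RH).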

Data set [2] deals with Green Peach Aphid (Myzus Persicae). Kind of data set: Insecticidal test for green peach aphid in foliar spray assay (col. MYZUPE). The format is in vivo. The settings on record: green peach aphid; for pest or weed control at 200 ppm: Myzus persicae, 72 h, read-out: MYZUPE 200 ppm (Corrected % Control, rating). A digest of the protocol:
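Corrected % control derives from microscope counts of live aphids per plant, treated against diluent-only checks, 3 days after foliar spraying at ~25 °C and 40% RH. Test solution was 200 ppm in 0.025% aqueous Tween 20, applied to both leaf sides of infested cabbage seedlings, four pots each.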

Data set [3] concerns Cotton Aphid (Aphis Gossypii). Kind of data set: Insecticidal test for cotton aphid in foliar spray assay (col. APHIGO). It is filed as in vivo. The settings on record: for pest or weed control at 200 ppm: Aphis gossypii, 72 h, read-out: APHIGO 200 ppm (Corrected % Control, rating). The procedure: The compounds were tested against cotton aphid, green peach aphid, and sweet potato whitefly using procedures described in the following examples and reported in Table 2.
In each case of Table 2, the rating scale is as follows at 200 ppm.
Insecticidal Test for Cotton Aphid (Aphis Gossypii) in Foliar Spray Assay
Squash or cotton seedlings with fully expanded cotyledon leaves were trimmed to one cotyledon per plant and infested with cotton aphid (wingless adult and nymph) one day prior to chemical application. Each plant was examined before chemical application to ensure uniform infestation (ca. 30-70 aphids per plant). Compounds (2 mg) were dissolved in 2 mL of acetone/methanol (1:1) solvent, forming stock solutions of 1000 ppm. The stock solutions were diluted 5× with 0.025% Tween 20 in H2O to obtain a solution at 200 ppm. A hand-held Devilbiss aspirator type sprayer was used to apply the spray solutions until runoff to both sides of the squash cotyledon leaves. Four plants (4 replications) were used for each concentration of each compound. Reference plants (solvent check) were sprayed with the diluent only. Treated plants were held in a holding room for three days at approximately 25° C. and 40% RH before the number of live aphids on each plant was recorded. Insecticidal activity was measured by Corrected % Control using Abbott's correction formula and presented in Table 2 (see col. “APHIGO”): Corrected % Control=100*(X−Y)/X • where X=No. of live aphids on solvent check plants • Y=No. of live aphids on treated plants

Regarding `CCN(C(=O)OC(C)(C)C)c1cnc(-c2cncc(F)c2)s1` [Compound 245], the melting point was 89 to 92 °C. The pest or weed control at 200 ppm in data set [1] fell in the range of 80 to 100%. For the same compound, the pest or weed control at 200 ppm in data set [2] is 80 to 100%. Besides, the pest or weed control at 200 ppm in data set [3] lay within 80 to 100%.

For the compound `C=CCSCC(C)C(=O)Nc1sc(-c2cncc(F)c2)nc1C` (stereo not drawn) [Compound 226], the melting point was in the range of 76 to 79 °C. Also, the pest or weed control at 200 ppm in data set [1] was 80 to 100%. Besides, in data set [2], the pest or weed control at 200 ppm lay within 80 to 100%. Moreover, in data set [3], the pest or weed control at 200 ppm is 80 to 100%.

Consider `CCN(C(=O)C(C)CSC)c1sc(-c2cncc(F)c2)nc1C` (stereo not drawn) [Compound 240], for which the pest or weed control at 200 ppm in data set [1], in data set [2] and in data set [3] was 80 to 100% each time.

Regarding `CN(C(=O)OC(C)(C)C)c1sc(-c2cccnc2)nc1Br` [Compound 242, (4-bromo-2-pyridin-3-yl-thiazol-5-yl)-methyl-carbamic acid tert-butyl ester], the melting point is 88 to 91 °C. Also, the pest or weed control at 200 ppm in data set [1] was in the range of 80 to 100%. In addition, the pest or weed control at 200 ppm in data set [2] fell in the range of 80 to 100%. Besides, the pest or weed control at 200 ppm in data set [3] was under 80%.

Regarding `CSCC(C)C(=O)N(C)c1sc(-c2cncc(F)c2)nc1Cl` (stereo not drawn) [Compound 262], the pest or weed control at 200 ppm in data set [1], in data set [2] and in data set [3] was 80 to 100% in each case.

Consider `CCN(C(=O)C(C)C)c1sc(-c2cncc(F)c2)nc1C` [Compound 253], for which the pest or weed control at 200 ppm in data set [1], in data set [2] and in data set [3] was 80 to 100% in each case.

In the case of `CCN(C(=O)CCSC)c1sc(-c2cncc(F)c2)nc1Cl` [Compound 274], the pest or weed control at 200 ppm in data set [1], in data set [2] and in data set [3] was 80 to 100% each time.

Consider `CCN(C(=O)C(C)CSC)c1sc(-c2cncc(F)c2)nc1Cl` (stereo not drawn) [Compound 279], for which the pest or weed control at 200 ppm in data set [1], in data set [2] and in data set [3] was 80 to 100% each time.

Regarding `CC(C[S+](C)[O-])C(=O)N(C)c1sc(-c2cncc(F)c2)nc1Cl` (stereo not drawn) [Compound 270], the values for the pest or weed control at 200 ppm in data set [1], in data set [2] and in data set [3] were 80 to 100%, 80 to 100% and under 80%, respectively.

`CC(C[S+](C)[O-])C(=O)N(C)c1sc(-c2cccnc2)nc1Cl` (stereo not drawn) [Compound 230]: the pest or weed control at 200 ppm in data set [1], in data set [2] and in data set [3] was 80 to 100% throughout.

On to `COc1ccc(CN(C(=O)OC(C)(C)C)c2cnc(-c3cccnc3)s2)cc1` [Compound 244], for which the melting point is 124 to 126 °C. In data set [1], the pest or weed control at 200 ppm was under 80%. Moreover, the pest or weed control at 200 ppm in data set [2] was under 80%. Also, the pest or weed control at 200 ppm in data set [3] was under 80%.

Regarding `CN(C(=O)CC[S+](C)[O-])c1sc(-c2cncc(F)c2)nc1Cl` (stereo not drawn) [Compound 272], the melting point lay within 123 to 126 °C. In addition, in data set [1], the pest or weed control at 200 ppm fell in the range of 80 to 100%. Further, the pest or weed control at 200 ppm in data set [2] lay within 80 to 100%. Further, the pest or weed control at 200 ppm in data set [3] is 80 to 100%.

Take `CSCC(C)C(=O)N(C)c1sc(-c2cccnc2)nc1Cl` (stereo not drawn) [Compound 227, N-(4-chloro-2-pyridin-3-yl-thiazol-5-yl)-2,N-dimethyl-3-methylsulfanyl-propionamide]: the pest or weed control at 200 ppm in data set [1], in data set [2] and in data set [3] was 80 to 100% in each case.

Consider `CSCCC(=O)N(C)c1cnc(-c2cccnc2)s1` [Compound 19, N-methyl-3-methylsulfanyl-N-(2-pyridin-3-yl-thiazol-5-yl)-propionamide], for which the results for the pest or weed control at 200 ppm in data set [1], in data set [2] and in data set [3] were under 80%, 80 to 100% and under 80%, respectively.

As to `CCN(C(=O)C(C)C[S+](C)[O-])c1sc(-c2cccnc2)nc1C` (stereo not drawn) [Compound 234], the pest or weed control at 200 ppm in data set [1], in data set [2] and in data set [3] was 80 to 100% throughout.

`CN(C(=O)OC(C)(C)C)c1cnc(-c2cncc(F)c2)s1` [Compound 243] had a melting point of 148 to 151 °C. In data set [1], the pest or weed control at 200 ppm fell in the range of 80 to 100%. For the same compound, the pest or weed control at 200 ppm in data set [2] lay within 80 to 100%. Also, the pest or weed control at 200 ppm in data set [3] lay within 80 to 100%.

Take `CSC(C)CC(=O)Nc1sc(-c2cncc(F)c2)nc1C` (stereo not drawn) [Compound 218]: the melting point lay within 130 to 133 °C. In data set [1], the pest or weed control at 200 ppm was 80 to 100%. Further, in data set [2], the pest or weed control at 200 ppm is 80 to 100%. Moreover, in data set [3], the pest or weed control at 200 ppm was 80 to 100%.

With `C=CC[S+]([O-])CC(C)C(=O)Nc1sc(-c2cncc(F)c2)nc1C` (stereo not drawn) [Compound 229], the melting point is 170 to 174 °C. The pest or weed control at 200 ppm in data set [1] was under 80%. For the same compound, the pest or weed control at 200 ppm in data set [2] is 80 to 100%. Further, the pest or weed control at 200 ppm in data set [3] was in the range of 80 to 100%.

`CCN(C(=O)C(C)C)c1sc(-c2cccnc2)nc1C` [Compound 233]: the pest or weed control at 200 ppm in data set [1], in data set [2] and in data set [3] was 80 to 100% each time.

As for `CCN(C(=O)C(C)CSC)c1sc(-c2cccnc2)nc1C` (stereo not drawn) [Compound 210], the pest or weed control at 200 ppm in data set [1], in data set [2] and in data set [3] was 80 to 100% throughout.

On to `CCN(C(=O)C(C)(C)CS(C)(=O)=O)c1sc(-c2cccnc2)nc1C` [Compound 250], for which the pest or weed control at 200 ppm in data set [1] is under 80%; in data set [2], 80 to 100%; in data set [3], under 80%.

With `CCN(C(=O)C(C)CS(C)(=O)=O)c1sc(-c2cccnc2)nc1C` (stereo not drawn) [Compound 235], the “BEMITA 200 ppm (Corrected % Control, rating)” value in data set [1] is recorded as “A (80-100)”. Also, in data set [2], the “MYZUPE 200 ppm (Corrected % Control, rating)” value is on record as “A (80-100)”. Further, the “APHIGO 200 ppm (Corrected % Control, rating)” value in data set [3] was “A (80-100)”.

For `CCN(C(=O)C(C)(C)CSC)c1sc(-c2cncc(F)c2)nc1C` [Compound 255], the pest or weed control at 200 ppm in data set [1], in data set [2] and in data set [3] was 80 to 100% throughout.

`CN(C(=O)OC(C)(C)C)c1sc(-c2cccnc2)nc1Cl` [Compound 228, (4-chloro-2-pyridin-3-yl-thiazol-5-yl)-methyl-carbamic acid tert-butyl ester] displayed a melting point of 119 to 122 °C. Further, the pest or weed control at 200 ppm in data set [1] fell in the range of 80 to 100%. In addition, the pest or weed control at 200 ppm in data set [2] fell in the range of 80 to 100%. The pest or weed control at 200 ppm in data set [3] lay within 80 to 100%.
